Data from the NIST ThermoML archive (doi:10.1016/j.jct.2008.02.019).

How the values were obtained:
[1] = xn = mol fraction of the nth substance listed; conditions: 101 kPa, Liquid
[2] = excess molar enthalpy (molar enthalpy of mixing); xn = mol fraction of the nth substance listed; conditions: 101 kPa, Liquid, Flow calorimetry

CCCC[n+]1ccc(C)cc1.F[B-](F)(F)F [1-butyl-4-methylpyridinium tetrafluoroborate] + CCO
Conditions | excess molar enthalpy [kcal/mol] | mass density [kg/m3]
[1], 298.15 K, x1 = 0.0523 | – | 852
[1], 298.15 K, x1 = 0.1023 | – | 901.7
[1], 298.15 K, x1 = 0.1469 | – | 938.3
[1], 298.15 K, x1 = 0.2023 | – | 976
[1], 298.15 K, x1 = 0.307 | – | 1030.5
[1], 298.15 K, x1 = 0.3801 | – | 1059.5
[1], 298.15 K, x1 = 0.4445 | – | 1080.8
[1], 298.15 K, x1 = 0.5069 | – | 1098.6
[1], 298.15 K, x1 = 0.5553 | – | 1110.8
[1], 298.15 K, x1 = 0.6045 | – | 1121.8
[1], 298.15 K, x1 = 0.6639 | – | 1134.2
[1], 298.15 K, x1 = 0.7127 | – | 1142.8
[1], 298.15 K, x1 = 0.7447 | – | 1148.4
[1], 298.15 K, x1 = 0.7964 | – | 1156.8
[1], 298.15 K, x1 = 0.8673 | – | 1167
[1], 298.15 K, x1 = 0.9171 | – | 1173.6
[1], 318.15 K, x1 = 0.0464 | – | 827.9
[1], 318.15 K, x1 = 0.0965 | – | 881.1
[1], 318.15 K, x1 = 0.1445 | – | 921.6
[1], 318.15 K, x1 = 0.2494 | – | 987.9
[1], 318.15 K, x1 = 0.2968 | – | 1011
[1], 318.15 K, x1 = 0.3855 | – | 1046.8
[1], 318.15 K, x1 = 0.4947 | – | 1080.9
[1], 318.15 K, x1 = 0.5877 | – | 1103.6
[1], 318.15 K, x1 = 0.6821 | – | 1123.2
[1], 318.15 K, x1 = 0.7798 | – | 1139.8
[1], 318.15 K, x1 = 0.8267 | – | 1146.8
[1], 318.15 K, x1 = 0.8776 | – | 1153.8
[2], 298.15 K, x1 = 0.0209 | 0.0715 | –
[2], 298.15 K, x1 = 0.0461 | 0.149 | –
[2], 298.15 K, x1 = 0.0751 | 0.224 | –
[2], 298.15 K, x1 = 0.1068 | 0.285 | –
[2], 298.15 K, x1 = 0.1406 | 0.358 | –
[2], 298.15 K, x1 = 0.1751 | 0.419 | –
[2], 298.15 K, x1 = 0.2104 | 0.481 | –
[2], 298.15 K, x1 = 0.246 | 0.527 | –
[2], 298.15 K, x1 = 0.2661 | 0.554 | –
[2], 298.15 K, x1 = 0.3 | 0.571 | –
[2], 298.15 K, x1 = 0.3402 | 0.58 | –
[2], 298.15 K, x1 = 0.3855 | 0.57 | –
[2], 298.15 K, x1 = 0.4296 | 0.545 | –
[2], 298.15 K, x1 = 0.4879 | 0.505 | –
[2], 298.15 K, x1 = 0.5522 | 0.455 | –
[2], 298.15 K, x1 = 0.6225 | 0.389 | –
[2], 298.15 K, x1 = 0.712 | 0.318 | –
[2], 298.15 K, x1 = 0.8071 | 0.223 | –
[2], 298.15 K, x1 = 0.903 | 0.12 | –
[2], 318.15 K, x1 = 0.0162 | 0.0906 | –
[2], 318.16 K, x1 = 0.0465 | 0.211 | –
[2], 318.17 K, x1 = 0.075 | 0.315 | –
[2], 318.18 K, x1 = 0.108 | 0.408 | –
[2], 318.19 K, x1 = 0.1427 | 0.495 | –
[2], 318.2 K, x1 = 0.178 | 0.566 | –
[2], 318.21 K, x1 = 0.2091 | 0.623 | –
[2], 318.22 K, x1 = 0.2364 | 0.658 | –
[2], 318.23 K, x1 = 0.2498 | 0.683 | –
[2], 318.24 K, x1 = 0.2824 | 0.708 | –
[2], 318.25 K, x1 = 0.3237 | 0.718 | –
[2], 318.26 K, x1 = 0.3722 | 0.717 | –
[2], 318.27 K, x1 = 0.4286 | 0.697 | –
[2], 318.28 K, x1 = 0.4859 | 0.664 | –
[2], 318.29 K, x1 = 0.5506 | 0.618 | –
[2], 318.3 K, x1 = 0.6196 | 0.558 | –
[2], 318.31 K, x1 = 0.6923 | 0.483 | –
[2], 318.32 K, x1 = 0.7625 | 0.404 | –
[2], 318.33 K, x1 = 0.8348 | 0.315 | –
[2], 318.34 K, x1 = 0.9014 | 0.213 | –
[2], 318.35 K, x1 = 0.9592 | 0.102 | –
